How the values were obtained:
[1] = system: Wistar rats; assay: Behavioural and EEG effects in rats at different doses; type: in vivo, rat
Method: Young male Wistar rats (200-260) were used in the experiments, housed in a standard temperature and humidity conditions, with food and water ad libitum.
The animals, anaesthetised with chloral hydrate (400 mg/kg) […], were stereotaxically implanted (Kopft Instruments) with cortical electrodes (n=4) onto the fronto-parietal region of the neocortex on both cerebral hemispheres, to record EEG. After surgery all animals were housed 48 h to allow a complete recovery.
48 Hours after electrode implantation, the animals, placed in a transparent box and freely moving, were connected with an electroencephalograph and the electrocortical activity was continuously monitored and recorded. After a 30 min control time, the compounds under test were intraperitoneally administered and EEG recording was continued for 90-120 min
EEG was recorded by computerised 24-channels apparatus (Vega 24, Galileo type, ESA-OTE Biomedica, Florence, Italy), while the spectrum activity was quantitatively analysed by a Berg Fourier analyser (ESA-OTE Biomedica, Florence, Italy). The total EEG power (0.25-16 Hz range) was divided into 5 variable frequency bands: δ 0.25-3 Hz, θ 3-6; α1 6-9; α2 9-12 and β12-16 Hz.
The EEG patterns and behavioral effects observed in the rat after administration of the choline derivatives and of the vehicle is reported in 5 Tab. 3. Such effects can be ascribed to the changes of EEG spectrum total power. An […] in EEG total power is related with the presence of slow frequency waves (synchronisation), whereas an […] thereof is related with the presence of rapid frequency waves (desynchronisation).

[2] = biological target: T1, Choline Specific Transport System (HUCT) (Rattus norvegicus, UniProt Q9JMD7); assay: EEG after ICV Hemicholinium-3 (choline uptake blocker) pretreatment; type: in vivo; details: rats, i.p. at the active dose after Hch3 pretreatment
T1 construct: from tissue; host or cells: brain of living Wistar rats (in vivo, ICV microinfusion, EEG read-out)
T1 sequence (Q9JMD7 1-580): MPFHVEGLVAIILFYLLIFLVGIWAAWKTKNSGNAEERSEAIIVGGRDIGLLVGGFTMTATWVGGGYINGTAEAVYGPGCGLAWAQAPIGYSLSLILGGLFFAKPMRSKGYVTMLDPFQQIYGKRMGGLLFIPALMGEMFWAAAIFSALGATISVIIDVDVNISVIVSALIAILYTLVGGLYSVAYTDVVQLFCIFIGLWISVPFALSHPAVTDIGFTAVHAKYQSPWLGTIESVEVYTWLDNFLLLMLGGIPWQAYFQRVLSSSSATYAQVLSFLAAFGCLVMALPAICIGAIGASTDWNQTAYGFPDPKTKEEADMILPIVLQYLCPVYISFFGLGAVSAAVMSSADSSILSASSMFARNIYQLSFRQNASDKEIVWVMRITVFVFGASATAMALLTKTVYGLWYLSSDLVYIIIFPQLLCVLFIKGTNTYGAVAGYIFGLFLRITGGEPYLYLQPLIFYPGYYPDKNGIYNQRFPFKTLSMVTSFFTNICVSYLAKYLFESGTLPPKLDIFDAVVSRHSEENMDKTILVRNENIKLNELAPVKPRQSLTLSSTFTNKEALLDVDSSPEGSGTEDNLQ
Method: FIG. 4B—Effect on EEG spectrum power after treatment with PC-1 (5 mg i.p.) administered 15 min after microinfusion of Hch3 (0.1 ng/0.5 μl) in the III ventricule. As in FIG. 4a, time (min) is reported in abscissa, the EEG spectrum power expressed as μV^2/s is reported in ordinate. Graphics report the EEG spectrum total power (0.25-16 Hz).

[3] = system: Wistar rats; assay: EEG spectral qualitative and quantitative analysis in freely moving rats after i.p. administration; type: in vivo, rat
Method: Young male Wistar rats (200-260) were used in the experiments, housed in a standard temperature and humidity conditions, with food and water ad libitum. […] After surgery all animals were housed 48 h to allow a complete recovery. 48 Hours after electrode implantation, the animals, placed in a transparent box and freely moving, were connected with an electroencephalograph and the electrocortical activity was continuously monitored and recorded. […] Qualitative and quantitative analysis on the electrocortical activity EEG recording was subsequently carried out. The animals were divided in 4 groups, the first group acted as the control, the second received cytidine-5′-diphosphocholine (CDP-choline), the third and fourth received PC-1 and PC-2, respectively (pivaloylcholine iodide and pivaloyleholine trimethylacetate, respectively). The control group received an equal volume of saline solution by the same procedure. […] Statistical analysis was performed by analysis of variance (ANOVA) for multiple measurements followed, if significant, by the post-hoc Tuckey-Kramer test. A comparison between groups was performed to exclude any individual variability.

[4] = system: rats; assay: Synergistic effect with tacrine: qEEG of neocortical activity in rats; type: in vivo, rat; details: n=7
Method: Results reported in Table 5 show the synergistic effect of the combination of tacrine with the choline derivatives of the present invention.
Vehicle: 2 ml/Kg; all drugs were administered i.p., PC-1 and PC-2 at corresponding equimolar doses (15 μmol/2 ml/kg^−1); THA (tacrine) (5 mg/kg) was administered 30 min before compounds; atropine (0.1 mg/kg) was injected 15 min before PC-1 and PC-2. The number of animals was 7 per each group. Values represent EEG power (μV/s).

[5] = after i.p. administration, % ± SEM
[6] = i.p. (vol. 0.5 ml), mean ± SEM, 7 tests
[7] = rats i.p., PC-1/PC-2 15 μmol/2 ml/kg, THA 5 mg/kg 30 min before, atropine 0.1 mg/kg 15 min before

For `CC(C)(C)C(=O)OCC[N+](C)(C)C.[I-]` [PC-1, pivaloylcholine iodide], the Behaviour ([1]; 1 mg) was “Alert response”, the “EEG Activity (change of EEG total power)” value ([1]; 1 mg) was “Decrease” and the Behaviour ([1]; 5 mg) was “Alert response”. The “EEG Activity (change of EEG total power)” value ([1]; 5 mg) was “Decrease”, the Behaviour ([1]; 50 mg) was “Convulsions and death (50%)” and the “EEG Activity (change of EEG total power)” value ([1]; 50 mg) was “Peaks”. The “Alert response and EEG desynchronization after Hch3 pretreatment” value [2] was “induced neither alert response not EEG desynchronization”, the “Change of slow EEG spectrum components (FIG. 3)” value [3] was “decrease in slow components (delta and theta) of the spectrum” and the “Duration of the decrease in EEG total power” value ([3]; 5 mg i.p.) was 15 min. The “Time to onset of EEG desynchronization and significant decrease in EEG total power” value ([3]; 5 mg i.p.) was 15 min, the “EEG frequency band 0.25-3 Hz” value [3, 5] was 4.3 ± 0.7(*) % and the “EEG frequency band 3-6 Hz” value [3, 5] was 18 ± 0.6(*) %. For the same compound, the “EEG frequency band 6-9 Hz” value [3, 5] was 32.5 ± 1.3%, the “EEG frequency band 9-12 Hz” value [3, 5] was 19.3 ± 0.9% and the “EEG frequency band 12-16 Hz” value [3, 5] was 13 ± 1.0%. The “Effect of atropine given 15 min before the compound” value ([3]; atropine pretreatment) was “antagonize the effects”, the “EEG total power (fronto-parietal cortex), Baseline” value ([3]; before i.p. injection (vol. 0.5 ml), mean ± SEM, 7 tests) was 120 ± 2.9 and the “EEG total power (fronto-parietal cortex), 15′” value [3, 6] was 82 ± 3.6(*). The “EEG total power (fronto-parietal cortex), 30′” value [3, 6] was 128 ± 3.2, the “EEG total power (fronto-parietal cortex), 45′” value [3, 6] was 110 ± 2.7 and the “EEG total power (fronto-parietal cortex), 60′” value [3, 6] was 120 ± 4.3. The “EEG total power (fronto-parietal cortex), 75′” value [3, 6] was 125 ± 3.5, the “EEG total power (fronto-parietal cortex), 90′” value [3, 6] was 127 ± 4 and the “EEG power (qEEG of neocortical activity), 15″” value [4, 7] was 68 μV/s. The “EEG power (qEEG of neocortical activity), 30″” value [4, 7] was 120 μV/s, the “EEG power (qEEG of neocortical activity), 45″” value [4, 7] was 127 μV/s and the “EEG power (qEEG of neocortical activity), 60″” value [4, 7] was 115 μV/s. For the same compound, the “EEG power (qEEG of neocortical activity), 75″” value [4, 7] was 129.5 μV/s, the “EEG power (qEEG of neocortical activity), 90″” value [4, 7] was 117 μV/s and the “EEG power (qEEG of neocortical activity), 105″” value [4, 7] was 132.5 μV/s. For the same compound, the “EEG power (qEEG of neocortical activity), 120″” value [4, 7] was 18.5 μV/s, the “EEG power (qEEG of neocortical activity), 135″” value [4, 7] was 135 μV/s and the “EEG effect with tacrine given 30 min before” value ([4]; rats, THA 5 mg/Kg i.p. 30 min before 15 μmol i.p.) was “long-lasting EEG desynchronization and significant decrease in EEG spectrum total power”. For the same compound, the “EEG power (qEEG of neocortical activity), Baseline” value ([4]; rats, before i.p. treatment) was 112.5 μV/s.
